ChEMBL document CHEMBL1146168, “Binding of f-PIP, a pyrrole- and imidazole-containing triamide, to the inverted CCAAT box-2 of the topoisomerase IIalpha promoter and modulation of gene expression in cells” (Bioorg Med Chem Lett, 2006)
Active and inactive are the calls of the source. The calls are words filed in the database; no cut-off is given here.

What was measured:
[1] = tested on: NIH3T3; assay: Inhibition of NF-Y binding to DNA sequence ICB2 in NIH3T3 cell extracts at 1 to 5 uM by EMSA; format: cell-free; details: Homo sapiens
[2] = tested on: NIH3T3; assay: Induction of topoisomerase 2 alpha protein expression in NIH3T3 cells after 24 hrs; format: functional, cell-based; details: Mus musculus
[3] = tested on: NIH3T3; assay: Inhibition of NF-Y binding to DNA sequence ICB1 in NIH3T3 cell extracts at 50uM by EMSA; format: cell-free; details: Homo sapiens
[4] = tested on: NIH3T3; assay: Inhibition of NF-Y binding to DNA sequence ICB2 in NIH3T3 cell extracts at 50 uM by EMSA; format: cell-free; details: Homo sapiens
[5] = organism: Homo sapiens; assay: Binding affinity to DNA sequence ICB1 assessed as protection of ICB1 from DNAase I cleavage at 100 uM
[6] = organism: Homo sapiens; assay: Binding affinity to DNA sequence ICB2 by SPR
[7] = tested on: NIH3T3; assay: Increased topoisomerase 2 alpha protein expression in NIH3T3 cells at 10 uM after 4 hrs; format: functional, cell-based; details: Mus musculus
[8] = organism: Homo sapiens; assay: Binding affinity to DNA sequence ICB4 assessed as protection of ICB4 from DNAase I cleavage at 100 uM

Activity [5]	Activity [6] [M⁻¹]	Activity [8]	Structure (SMILES)	Activity [1]	Activity [2]	Activity [3]	Activity [4]	Activity [7]
–	–	–	CN(C)CCNC(=O)c1cc(NC(=O)c2cc(NC(=O)c3cc(NC(=O)CCCNC(=O)c4nc(NC(=O)c5nc(NC(=O)c6cccn6C)cn5C)cn4C)cn3C)cn2C)cn1C	Active	Active	–	–	–
inactive	200000	inactive	CN(C)CCNC(=O)c1cc(NC(=O)c2nc(NC(=O)c3cc(NC=O)cn3C)cn2C)cn1C	–	–	inactive	Active	Active
